Where two headings read alike, the source gives them in different places.
Legend:
[1] = Kinetic solubility; format: physicochemical; settings: aqueous buffer, kinetic from dmso stock, 0.1 M phosphate buffered saline pH 7.4, target 100 μM, 1.5 h
Experimental: The target compound concentration was 100 μM (kinetic), the assay buffer was 0.1 M phosphate buffered saline pH 7.4, the mixing period was 1.5 h (kinetic). The sample was prepared by centrifugation or filtration and the detection method used was HPLC with UV-vis spectrometry.

[2] = Caco-2 permeability assay; settings: human
From the text: The endpoint measured is the intestinal permeability expressed as apparent permeability—Papp value. All permeability values are represented as ×10^−6 cm/sec.

[3] = Human hepatocyte clearance; format: in vitro ADME; settings: human hepatocytes, 1 μM
Experimental: (§1) A hepatocyte vial was taken out from the liquid nitrogen tank and was thawed in a water bath maintained at 37° C. The thawed cell suspension was transferred into a torsion tube containing 50 mL of thawing media (Xenotech). The thawing media containing hepatocytes was centrifuged at 1000 rpm for 5 min, the supernatant was discarded and the pellet was resuspended in 2 ml of Xenotech OptiIncubate Media. The cells were counted by using a haemocytometer after mixing an aliquot of cell suspension with equal volume of trypan blue. The cell suspension was diluted to a working density of 2 million cells with DMEM media without FBS/incubation media.
(§2) The assay was performed in duplicates (n=2). 150 μL of 2 million cell working stock of hepatocyte cell suspension was added to a 24 well plate and incubated in a 37° C. incubator, with speed of 500 RPM for 10 min. 150 μL of 2 μM working stock of test compound was incubated separately. The reaction at 0, 15, 30, 60 and 90 min was stopped by precipitating 20 μL of incubation mixture with 200 μL of acetonitrile containing internal standard. […] The supernatant was separated and diluted 1:1 with water before injecting in LC-MS/MS analysis.

[4] = test system: human hepatocytes; experiment: Human hepatocyte clearance; format: in vitro ADME
Experimental: as §1, §2

[5] = test system: human hepatocytes; experiment: Human hepatocyte stability
Experimental: 10 mM stock solution of test compound was prepared in DMSO and diluted to a concentration of 1 mM with DMSO. Working concentration of 2 μM was prepared by further dilution with PBS. Preincubation mixture of 150 μL of hepatocyte cell suspension (1,000,000 cells/mL, INVITROGRO HT medium buffer), was added to vials for preincubation for 10 min @37° C.
150 μL of 2 μM working stock of the test compound was added to the cell suspension and incubated at @37 C at 500 rpm. The reaction was stopped at 0, 15, 30, 60 and 90 min by precipitating 50 μL of the incubation mixture with 150 μL of acetonitrile. Samples were vortexed for 5 min at 1200 rpm and centrifuged at 4000 rpm for 10 min. 150 μL of the supernatant was diluted with 150 μL of water and injected in MS system (SCIEX, API 4500 Q Trap) for analysis.

[6] = read-out: Mean Solubility (μg/mL)

SMILES	solubility at 1.5 h ([1]; read-out: Mean Solubility)	solubility at 1.5 h [1, 6]	Papp A→B [2]	Papp B→A [2]	efflux ratio [2]	recovery ([2]; Caco-2, % Recovery A to B)	recovery ([2]; Caco-2, % Recovery B to A)	other results
CCCSc1ccc2nc(NC(=O)OC)[nH]c2c1 [Albendazole, reference compound]	0.66 µM	0.2 µg/mL	–	–	–	–	–	–
NC(=O)N1c2ccccc2C=Cc2ccccc21 [Carbamazepine, reference compound]	–	–	22.2 ×10⁻⁶ cm/s	23.4 ×10⁻⁶ cm/s	1.1	89.3%	91%	–
O=c1[nH]c2ccccc2n1CCCN1CCC(n2c(=O)[nH]c3cc(Cl)ccc32)CC1 [Domperidone, reference compound]	–	–	3.9 ×10⁻⁶ cm/s	20.3 ×10⁻⁶ cm/s	5.2	61.8%	76.4%	–
CC(C(=O)O)c1ccc(-c2ccccc2)c(F)c1 (stereo not shown) [Flurbiprofen, reference compound]	111 µM	27 µg/mL	–	–	–	–	–	–
C[C@]12CC[C@H]3[C@@H](CCC4=CC(=O)CC[C@@]43C)[C@@H]1CC[C@@H]2O [Testosterone, reference compound]	–	–	–	–	–	–	–	half-life at 1 μM ([3]; 0-90 min, read-out: T½): 9.14 min; hepatocyte CLint at 1 μM ([3]; read-out: Intrinsic Clearance (CL Int)): 75.8 µL/min/1e6 cells; Remarks (clearance class) [4]: High*; % Parent Remaining ([5]; 0 mins): 100%; % Parent Remaining ([5]; 15 mins): 28%; % Parent Remaining ([5]; 30 mins): 11%; % Parent Remaining ([5]; 60 mins): 3%; % Parent Remaining ([5]; 90 mins): 1%
